In article PMC12419922, “Myristoylated Cathelicidin-DM Fused With ANG1-7: A Novel Self-Assembling Antimicrobial Peptide for the Treatment and Mechanism of Diabetic Infected Wounds” (Journal of Diabetes Research, 2025):
Where a SMILES comes first, the peptide text is derived from it.

Legend:
[1] = tested on: HUVECs; experiment: Tube formation (angiogenesis) on Matrigel; assay type: cell-based, human; settings: 9 h, n = 3
Description: The formation of vascular structure was observed by matrix glue experiment, and the angiogenesis ability was evaluated in Matrigel stent (Corning, New York). After treatment in each group, 300 μL (2 × 10^5 cells/mL) HUVECs were digested and inoculated into a 24-well plate containing Matrigel scaffold. After 9 h, the formation image of the tube was photographed.

[2] = tested on: HUVECs; experiment: MDA, thiobarbituric acid method; assay type: cell-based, human; settings: HUVEC supernatant, HG + LPS (HG + LPS increased by 1.65 times); n = 3
Description: The level of MDA was determined by the thiobarbituric acid (TBA) method. Briefly, 100 μL of cell supernatant was mixed with 200 μL of a 10% trichloroacetic acid solution of 0.67% TBA. The mixture was incubated at 95°C for 30 min, cooled on ice, and centrifuged at 12,000 × g at 4°C for 10 min. The absorbance of the supernatant was measured at 532 nm using an enzyme-labeled instrument. The experiments were repeated three times.

[3] = tested on: S. aureus (ATCC 25923) infected diabetic wound; experiment: Diabetic mouse S. aureus-infected full-thickness skin wound model; settings: for wound healing rate: 7th day, 20 μg/mL in PBS, 200 μL subcutaneously for 3 days, n = 4
Description: BALB/c male mice are from the Experimental Animal Center of Air Force Military Medical University. One group was fed a normal diet, and the other five groups were fed a high-fat diet for 4 weeks and then injected with 35 mg/kg streptozotocin (STZ, 35 mg/kg, Sigma) intraperitoneally for 3 days. […] After intraperitoneal injection of pentobarbital sodium (1%, […]), the dorsal hair of each animal was shaved off, and a circular full-thickness skin wound was created on the back using a 10-mm sterile mouse punch. S. aureus (ATCC 25923) was used to infect the wound site of mice, and a full-thickness wound infection model of mice was established. S. aureus was first resuscitated by operation in a biological ultra-clean table. A single colony was picked and incubated in LB medium at 37°C and 200 rpm. The concentration of the above S. aureus solution was adjusted to 1 × 10^8 CFU/mL to infect the wound of mice. Then, 24 h after S. aureus infection, three drugs, DM (20 μg/mL), ANG1-7 (20 μg/mL), and MYR-DM-ANG1-7 (20 μg/mL), were dissolved in PBS buffer, and 200 μL was injected subcutaneously for 3 days. After drug injection, the wound pus was diluted and coated with plate culture to observe the colony situation. The gross specimen imaging system (GF-7A, China) was used to record the wounds of mice on the same day and every other day after the formation of the wounds. The rubber ring with adhesive backing was used to fix the wound and prevent it from shrinking. ImageJ analysis software (NIH, Bethesda, MD, United States) was used to calculate and analyze the wound area. After 0, 3, 7, 10, and 14 days, the size of the infected wound was evaluated by rubber ring. The wound closure was measured as follows: the wound healing rate (%) = [W0 − Wn]/W0 × 100%, where W0 and Wn represent the wound area on the 0th and nth days, respectively (n = 4).
On the 14th day, the skin tissue was fixed in 4% paraformaldehyde solution, dehydrated, embedded in paraffin, sliced, and stained with hematoxylin–eosin (HE) and Masson. Skin tissue sections on Day 7 were immunofluorescently stained using rabbit anti-mouse CD31 (Cell Signaling Technology) and α-SMA (Cell Signaling Technology), and all stained sections were observed under the slide scanner (Aperio AT 2; Leica Biosystems, Germany).

[4] = tested on: HUVECs; experiment: NO secretion, Griess reaction; assay type: cell-based, human; settings: HG + LPS (HG + LPS 0.5 times the original level), n = 3
Description: NO levels were determined using the Griess reaction. Briefly, 100 μL of cell culture supernatant was mixed with an equal volume of Griess reagent and incubated at room temperature in the dark for 30 min. The absorbance of the reaction mixture was measured at 540 nm using a microplate reader. Sodium nitrite (NaNO2) was used as a standard to generate a calibration curve, and the NO concentration in the samples was calculated accordingly. All experiments were independently performed in triplicate to ensure data reliability and reproducibility.

[5] = tested on: HUVECs; experiment: Scratch wound healing assay; assay type: cell-based, human; settings: HG + LPS, 20 μg/mL, n = 3; for wound healing rate (scratch assay): after 12 h; for healing area (scratch assay): at 48 h
Description: In a 6-well plate, HUVECs (2 × 10^5 cells/well) were seeded. The cells were starved in serum-free medium for 12 h, and then, a scratch was made vertically using a 200-μL pipette tip. […]

[6] = tested on: PI3K/AKT/eNOS signaling pathway, MasR in HUVECs; experiment: Western blot of PI3K/AKT/eNOS signaling pathway and MasR; assay type: cell-based, human; settings: inhibitor group
Description: After the specified treatments, HUVECs were harvested using a cell scraper and lysed in cell lysis buffer (Wuhan Boster Biological Engineering Co., Ltd.) for 30 min at 4°C. Total protein was quantified using a BCA protein assay kit. Lysate (20 μg) from each sample was separated by 10% sodium dodecyl sulfate–polyacrylamide gel electrophoresis (SDS-PAGE) and then transferred to a polyvinylidene fluoride (PVDF) membrane. The membrane was blocked with a fresh blocking buffer containing 5% skim milk in Tris-buffered saline with 0.1% Tween 20 (TBS-T) for 2 h at room temperature and then incubated with primary antibodies against AKT (1:1000 dilution, #4691, Cell Signaling Technology), p-AKT (1:2000 dilution, #4060, Cell Signaling Technology), PI3K (1:1000 dilution, ab191606, Abcam), p-PI3K (1:1000 dilution, ab278545, Abcam), eNOS (1:1000 dilution, #32027, Cell Signaling Technology), p-eNOS (1:1000 dilution, ab215717, Abcam), and Mas (1:1000 dilution, #85003-1-RR, Proteintech) overnight at 4°C with shaking. The membrane was washed with TBS-T for 15 min and then incubated with horseradish peroxidase (HRP)–conjugated goat anti-rabbit secondary antibody (Wuhan Sanying Biotechnology Co., Ltd.) at a 1:2000 dilution in TBS-T and 3% skim milk for 90 min at room temperature. The membrane was washed three times with TBS-T, each for 15 min, and the immune reaction signals were detected using an ECL detection method. Protein bands were detected using a chemiluminescent gel imaging system (Bio-Rad Lab, China). Protein expression was quantitatively analyzed using ImageJ software (National Institutes of Health, Bethesda, MD, United States), and the experiment was repeated three times.

Compound	length of formed blood vessels ([1]; HG + LPS (HG + LPS group 0.4 times))	secretion of MDA, increased by [2]	wound healing rate [3]	fluorescence intensity of α-SMA ([3]; seventh day, vs the diabetes infection group, p < 0.01)	NO secretion in cell supernatant, increases to [4]	wound healing rate (scratch assay) [5]	healing area (scratch assay) [5]	main connections of formed blood vessels ([1]; HG + LPS (HG + LPS group 0.3 times))	secretion of MDA, decreased by [2]	increase in p-PI3K, p-AKT, and p-eNOS levels [6]
CC[C@H](C)[C@H](NC(=O)[C@H](CC(C)C)NC(=O)[C@@H](NC(=O)[C@H](Cc1ccc(O)cc1)NC(=O)CNC(=O)CNC(=O)[C@H](CCCNC(=N)N)NC(=O)[C@H](CC(C)C)NC(=O)[C@H](CCCCN)NC(=O)[C@H](CC(C)C)NC(=O)[C@H](CCCCN)NC(=O)[C@H](CS)NC(=O)[C@H](CC(C)C)NC(=O)[C@H](Cc1c[nH]c2ccccc12)NC(=O)CNC(=O)[C@H](CCCCN)NC(=O)[C@H](CS)NC(=O)[C@@H]1CCCN1C(=O)[C@H](CCCCN)NC(=O)[C@H](CCCNC(=N)N)NC(=O)[C@H](CCCNC(=N)N)NC(=O)[C@H](CO)NC(=O)[C@@H](N)CO)[C@@H](C)O)C(=O)NCC(=O)N[C@@H](CO)C(=O)N[C@@H](C)C(=O)N[C@H](C(=O)N[C@@H](CC(N)=O)C(=O)N[C@@H](CC(C)C)C(=O)N[C@@H](CC(N)=O)C(=O)N[C@@H](CCCNC(=N)N)C(=O)N1CCC[C@H]1C(=O)N[C@H](C(=O)N[C@@H](Cc1ccc(O)cc1)C(=O)N[C@H](C(=O)N[C@@H](CCCNC(=N)N)C(=O)N[C@@H](C)C(=O)O)C(C)C)[C@@H](C)O)[C@@H](C)O [DM, cathelicidin-DM] (H-SSRRKPCKGWLCKLKLRGGYTLIGSATNLNRPTYVRA-OH; N-terminus and C-terminus assumed)	1.3 times	1.2 times	69.86%	significantly higher	1.2 times	25.2%	52.6%	–	–	–
DRVYIH [ANG1-7, angiotensin 1-7]	–	–	40.69%	–	1.65 times	44.7%	72.06%	1.4 times	0.56 times	–
O=c1cc(N2CCOCC2)oc2c(-c3ccccc3)cccc12 [LY294002, reference compound]	–	–	–	–	–	–	–	–	–	significantly inhibited
